Columns and labels:
[1] = Lipophilicity, log P of the compound; format: physicochemical; settings: octanol/water
[2] = Dissociation constant, pKa of the compound; format: physicochemical

SMILES	logP [1]	pKa [2]
CC(=O)N[C@@H](Cc1cc(F)cc(F)c1)[C@H](O)CNC1(c2cccc(C3CCCO3)c2)CCCCC1 (some centres undefined)	4	–
CC(=O)N[C@@H](Cc1cc(F)cc(F)c1)[C@H](O)CNC1(c2cccc(C3CCOC3)c2)CCCCC1 (some centres undefined)	4	–
CC(=O)N[C@@H](Cc1cc(F)cc(F)c1)[C@H](O)CNC1(c2cccc(C(C)(C)C)c2)CCCCC1	4.8	8.1
